Data as given in ChEMBL document CHEMBL4340564, “Quercetin-3-oleoyl derivatives as new GPR40 agonists: Molecular docking studies and functional evaluation” (Bioorg Med Chem Lett, 2019).
Activity calls are given as the source filed them. No cut-off for these calls is given here.

Legend:
Format in all cases: cell-based
[1] = target: Free fatty acid receptor 1 (Homo sapiens) (UniProt O14842); assay: Agonist activity at human GPR40 expressed in rat INS1(832/13) cells harboring human proinsulin assessed as increase in glucose-stimulated insulin secretion at 20 to 40 uM incubated for 5 mins by ELISA
Free fatty acid receptor 1 (Homo sapiens), sequence (O14842 whole entry): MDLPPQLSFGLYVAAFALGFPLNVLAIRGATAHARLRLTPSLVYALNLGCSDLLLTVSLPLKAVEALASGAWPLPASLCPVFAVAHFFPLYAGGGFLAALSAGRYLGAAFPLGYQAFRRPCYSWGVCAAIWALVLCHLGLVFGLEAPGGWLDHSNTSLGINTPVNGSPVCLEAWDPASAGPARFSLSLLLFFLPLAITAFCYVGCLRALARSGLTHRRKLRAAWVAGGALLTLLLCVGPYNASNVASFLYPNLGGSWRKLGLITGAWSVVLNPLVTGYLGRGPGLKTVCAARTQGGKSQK

[2] = target: Free fatty acid receptor 1 (Homo sapiens) (UniProt O14842); assay: Agonist activity at human GPR40 expressed in rat INS1(832/13) cells harboring human proinsulin assessed as increase in glucose-stimulated insulin secretion at 10 uM incubated for 5 mins in presence of GPR40 antagonist DC260126 by ELISA
[3] = target: Free fatty acid receptor 1 (Homo sapiens) (UniProt O14842); assay: Antagonist activity at human GPR40 expressed in rat INS1(832/13) cells harboring human proinsulin assessed as inhibition of 20 uM AV1-induced increase in glucose-stimulated insulin secretion at 40 uM by ELISA
[4] = target: Free fatty acid receptor 1 (Homo sapiens) (UniProt O14842); assay: Partial agonist activity at human GPR40 expressed in rat INS1(832/13) cells harboring human proinsulin assessed as potentiation of 2.5 uM AV1-induced increase in glucose-stimulated insulin secretion at 21 uM by ELISA
[5] = target: Free fatty acid receptor 1 (Homo sapiens) (UniProt O14842); assay: Antagonist activity at human GPR40 expressed in rat INS1(832/13) cells harboring human proinsulin assessed as inhibition of 20 uM AV1-induced increase in glucose-stimulated insulin secretion at 21 uM by ELISA
[6] = target: Free fatty acid receptor 1 (Homo sapiens) (UniProt O14842); assay: Partial agonist activity at human GPR40 expressed in rat INS1(832/13) cells harboring human proinsulin assessed as potentiation of 10 uM AV1-induced increase in glucose-stimulated insulin secretion by ELISA
[7] = target: Free fatty acid receptor 1 (Homo sapiens) (UniProt O14842); assay: Agonist activity at human GPR40 expressed in rat INS1(832/13) cells harboring human proinsulin assessed as increase in glucose-stimulated insulin secretion at 40 uM incubated for 5 mins in presence of GPR40 antagonist DC260126 by ELISA
[8] = target: Free fatty acid receptor 1 (Homo sapiens) (UniProt O14842); assay: Partial agonist activity at human GPR40 expressed in rat INS1(832/13) cells harboring human proinsulin assessed as potentiation of 2.5 uM AV1-induced increase in glucose-stimulated insulin secretion at 40 uM by ELISA

Row | SMILES | Activity [1] | Activity [2] | Activity [3] | Activity [4] | Activity [5] | Activity [6] | Activity [7] | Activity [8]
1 | CCCCCCCC/C=C\CCCCCCCC(=O)Oc1c(-c2ccc3c(c2)OC(c2ccccc2)(c2ccccc2)O3)oc2cc(O)cc(O)c2c1=O | Active | inactive |  |  |  |  |  | 
2 | CCCCCCCC/C=C\CCCCCCCC(=O)Oc1c(-c2ccc(O)c(O)c2)oc2cc(O)cc(O)c2c1=O | Active |  | Active | Active | Active | Dose-dependent effect | inactive | Active
